Experimental data taken from US8937039B2, “Peptide-based peroxidase inhibitors and methods of using same” (The Medical College of Wisconsin, Inc., priority 2009, dated 2015).
“Also recorded” adds a separate entry of the source. Residues, ends and D or L forms follow the SMILES beside them.

Key:
[1] = Solubility in aqueous buffers; assay type: physicochemical
MPO [2] = target: T1, MPO (Homo sapiens, UniProt P05164); assay: MPO-mediated LDL oxidation (conjugated diene formation, 234 nm); assay type: biochemical; set-up: purchased Lee Biosolutions (St. Louis, Mo.); conditions: for Conjugated diene formation in LDL (in words): MPO/H2O2 (300 μM)/nitrite, more than 2 hours
T1 sequence (P05164 49-745): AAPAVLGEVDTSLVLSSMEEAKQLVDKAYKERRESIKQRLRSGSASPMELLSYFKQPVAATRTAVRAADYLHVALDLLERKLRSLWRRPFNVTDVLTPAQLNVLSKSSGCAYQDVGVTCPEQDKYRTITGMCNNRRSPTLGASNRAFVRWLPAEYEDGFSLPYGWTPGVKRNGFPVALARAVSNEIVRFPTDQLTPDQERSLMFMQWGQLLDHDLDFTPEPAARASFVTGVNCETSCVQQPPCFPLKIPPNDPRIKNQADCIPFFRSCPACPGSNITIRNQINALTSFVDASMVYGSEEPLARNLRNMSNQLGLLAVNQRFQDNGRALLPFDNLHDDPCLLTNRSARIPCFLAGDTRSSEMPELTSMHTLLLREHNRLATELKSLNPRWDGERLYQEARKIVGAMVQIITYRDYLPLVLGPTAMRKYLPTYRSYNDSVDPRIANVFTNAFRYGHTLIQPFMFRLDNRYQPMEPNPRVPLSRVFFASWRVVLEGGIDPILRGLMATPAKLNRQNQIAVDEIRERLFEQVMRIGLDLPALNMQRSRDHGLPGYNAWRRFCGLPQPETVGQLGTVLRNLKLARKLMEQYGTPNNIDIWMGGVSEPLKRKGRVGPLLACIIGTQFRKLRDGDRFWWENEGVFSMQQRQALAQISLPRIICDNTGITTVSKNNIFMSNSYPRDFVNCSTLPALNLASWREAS
Procedure: MPO-mediated oxidation of LDL. […] LDL oxidation was monitored at 234 nm at room temperature on a HP UV/VIS spectrometer. Absorbance traces represent the average of duplicate experiments.
MPO-mediated LDL Oxidation. […] Rates of LDL oxidation were monitored at room temperature at 234 nm, the wavelength maximum for conjugated dienes.
MPO-mediated LDL Conjugated Diene Formation: Reaction mixtures contained LDL (0.15 mg/mL), NaNO2 (100 μM), H2O2 (100 μM), MPO (20 nM) and increasing concentrations of KYC or equimolar concentrations of various compounds in a phosphate buffer (100 mM, pH 7.4) containing DTPA (100 μM). Rates of LDL conjugated diene formation were determined by following changes in absorbance at 234 nm, the wavelength maximum for conjugated dienes, on a UV-Vis spectrophotometer (Agilent Model 8453) at room temperature.

NADPH oxidase (NOX) = target: T2, NADPH oxidase (NOX) (Homo sapiens, UniProt P04839); assay: PMA-stimulated HL-60 cell superoxide formation (SOD-inhibitable cytochrome C reduction); assay type: cell-based; conditions: cytochrome C assay
T2 construct: host or cells: HL-60 cells stimulated with PMA
T2 sequence (P04839 2-570 limits assumed): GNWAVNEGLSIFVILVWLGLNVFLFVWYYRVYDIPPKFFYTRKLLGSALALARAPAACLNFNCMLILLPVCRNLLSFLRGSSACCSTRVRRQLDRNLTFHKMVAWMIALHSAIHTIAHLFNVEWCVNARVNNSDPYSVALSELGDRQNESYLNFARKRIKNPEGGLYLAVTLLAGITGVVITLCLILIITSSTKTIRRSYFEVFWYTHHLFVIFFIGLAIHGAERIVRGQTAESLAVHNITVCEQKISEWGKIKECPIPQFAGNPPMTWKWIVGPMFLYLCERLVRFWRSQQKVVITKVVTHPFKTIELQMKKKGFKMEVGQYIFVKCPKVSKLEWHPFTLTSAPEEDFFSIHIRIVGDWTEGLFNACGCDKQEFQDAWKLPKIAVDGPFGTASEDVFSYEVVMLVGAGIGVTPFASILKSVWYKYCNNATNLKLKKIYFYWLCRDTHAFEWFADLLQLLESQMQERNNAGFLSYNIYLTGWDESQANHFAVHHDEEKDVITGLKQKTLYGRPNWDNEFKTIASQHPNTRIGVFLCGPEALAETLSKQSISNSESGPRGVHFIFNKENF
T2 sequence (P13498 2-195 partner limits assumed): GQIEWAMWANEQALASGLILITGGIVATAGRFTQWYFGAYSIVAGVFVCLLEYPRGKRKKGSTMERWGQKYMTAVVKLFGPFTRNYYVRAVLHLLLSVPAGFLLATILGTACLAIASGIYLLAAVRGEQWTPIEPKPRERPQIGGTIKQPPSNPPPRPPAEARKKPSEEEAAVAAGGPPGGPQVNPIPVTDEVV
Procedure: PMA-induced Superoxide Anion Formation. HL-60 cells were cultured in RPMI 1640 medium containing 10% FCS (passage 20-50). HL-60 cells were harvested by centrifugation (1000 rpm, 10 min), washed 2× with phosphate buffer (10 mM, pH 7.4) with NaCl (138 mM), KCl (2.67 mM), CaCl2 (0.901 mM), MgCl2 (0.493 mM) and glucose (1 mg/ml) to remove culture medium. The HL-60 cells (6×10^6/0.5 ml) were re-suspended in DPBS. After stimulation with PMA (10 μM), the HL-60 cells were incubated with cytochrome C (40 μM) with or without superoxide dismutase at 37° C. for 30 min. The reaction was stopped by centrifugation. Cytochrome C reduction was measured at 550 nm on a UV-Vis spectrophotometer (Agilent, Model 8453).
PMA-stimulated HL-60 cell O2.^− Formation: HL-60 cells were harvested by centrifugation (1000 rpm, 10 min), washed twice with DPBS with glucose to remove culture medium. The HL-60 cells (1.2×10^7/ml) were re-suspended in DPBS with glucose. After stimulation with PMA (10 μM), the HL-60 cells were incubated with cytochrome C (40 μM) with or without superoxide dismutase (500 units/mL) at 37° C. for 10 min and then the HL-60 cells were removed by centrifugation. Cytochrome C reduction in supernatants was measured at 550 nm using a UV-Vis spectrophotometer (Agilent, Model 8453).

MPO [3] = target: T1, MPO; assay: MPO-mediated LDL Trp oxidation (Trp fluorescence); assay type: biochemical; set-up: purchased Lee Biosolutions (St. Louis, Mo.); conditions: MPO/H2O2/NO2−, 30 min, room temperature
Procedure: MPO-mediated LDL Trp Oxidation: Reaction mixtures containing LDL (0.15 mg/mL), NaNO2 (100 μM), H2O2 (100 μM), MPO (20 nM) and increasing concentrations of KYC in a phosphate buffer (100 mM, pH 7.4) containing DTPA (100 μM) were incubated at room temperature for 30 min. Reactions were stopped by addition of catalase (2,000 units/mL) and the oxidation of Trp in LDL was determined by measuring changes in the intrinsic fluorescence of Trp (Ex 294 nm/Em 345 nm) using a LC-50 fluorometer (Perkin Elmer, Waltham Mass.).

CC(=O)N[C@@H](CCCCN)C(=O)N[C@@H](Cc1ccc(O)cc1)C(=O)N[C@@H](CS)C(N)=O [KYC, N-acetyl Lysyltyrosylcysteine Amide] (Ac-Lys-Tyr-Cys-NH2)
Solubility in water / aqueous buffers (in words) [1]: highly water soluble
Conjugated diene formation in LDL (in words) (MPO [2]; 20 μM KYC): totally suppresses
MPO/H2O2/nitrite-mediated LDL oxidation (in words) (MPO [2]; 25 μM, H2O2 100 μM, NaNO2 100 μM): completely suppressed
MPO/H2O2-mediated LDL oxidation in the absence of nitrite (in words) (MPO [2]; 25 μM, without NaNO2): inhibited; also recorded: did not increase LDL oxidation
Conjugated diene formation in LDL (in words) (MPO [2]; 100 μM KYC): totally suppresses
O2.− production in PMA-stimulated HL-60 cells (in words) (NADPH oxidase (NOX)): neither KYC nor KYC disulfide have any significant effect; also recorded: Neither KYC nor KYC disulfide had any significant effect
MPO-dependent oxidation of Trp residues in LDL (in words) (MPO [3]): protected the Trp residues
